Assay results as given in patent US12359121B2, “Neutral fluorescent mitochondrial marker as amide derivative, and preparation method and use thereof” (SOOCHOW UNIVERSITY, priority 2021, dated 2025).

Tests used:
[1] = test system: mitochondria in HeLa cells; test: Colocalization imaging with red mitochondrial marker Mito Tracker Red CMXRos, laser confocal microscope; type: cell-based; settings: 2 μM; for mitochondria labeling ability: blue channel; for colocalization coefficient: versus Mito Tracker Red CMXRos (100 nm)
Protocol: To test the fluorescent labeling ability of Compound 2a compared with commercial mitochondrial markers, dye 2a was formulated into a mother liquor in DMSO (dimethyl sulfoxide), and then added to a conventional cell culture medium to give a concentration of dye 2a in the cell culture medium of 2 μM. HeLa cells were co-cultured for 10 min in an incubator at saturated humidity, 37° C., and 5% CO2 (the experiment was same below). The red mitochondrial marker Mito Tracker© Red CMXRos (100 nm) was added, and the cells were co-incubated for another 10 min, washed three times with a PBS buffer, and imaged under a laser confocal microscope. In the blue channel, light of 405 nm was used for excitation, and a fluorescence signal in the range of 410-500 nm was collected; and in the red channel, light of 561 nm was used for excitation, and a fluorescence signal in the range of 570-750 nm was collected.
The experiment method with dye 2b (2 μM), dye 2c (2 μM), dye 2d (2 μM), and dye 2e (2 μM) was the same with that with dye 2a, except that dye 2a was replaced.

[2] = Photo stability under iodine tungsten lamp irradiation (residual absorptivity); type: physicochemical; settings: 10 μM in acetonitrile; 6 hrs continuous irradiation, 500 W iodine tungsten lamp, 25 cm
Protocol: The photo stability of dyes 2a-2e, and 3a-e (with a concentration of 10 μM) prepared above was tested. Corresponding weights of dyes 2a-2e and 3a-e and their references coumarin and Nile red were weighed, and dissolved in acetonitrile (at a concentration of 10 μM) respectively. All the samples were irradiated with a Philips iodine tungsten lamp (500 W), and the distance between the lamp and the sample was set to 25 cm. An 8 cm-thick NaNO2 (60 g·L^−1) cold trap was positioned between the lamp and the sample, to eliminate heat and short-wavelength light. The irradiation was continued for 6 hrs, during which the ultraviolet fluorescence was tested every half an hour. After 6 hrs, the light stability was measured by residual absorptivity calculated based on the change in the absorption intensity at various times before and after the irradiation. […] The residual absorptivity of dyes 2a-e, and 3a-e is 2a: 93%, 2b: 92%, 2c: 95%, 2d: 91%, 2e: 97%, 3a: 93%, 3b: 92%, 3c: 94%, 3d: 93%, 3e: 92%. It can be seen that dyes 2a-2e and 3a-e have higher photo stability.

[3] = Ultraviolet-visible absorption and fluorescence emission in chloroform; type: physicochemical; settings: 10 μM in chloroform; for maximum emission wavelength (highest fluorescence intensity): excitation 380-385 nm, slit 3 nm/1.5 nm (2a-e), excitation 545-550 nm, slit 1.5 nm/3 nm (3a-e)
Protocol: The ultraviolet absorption and fluorescence emission of the dyes prepared above (at a concentration of 10 μM) in chloroform were tested. The horizontal ordinate is the wavelength, and the vertical ordinate is the absorbance and fluorescence intensity, respectively.
In the ultraviolet-visible absorption spectrum, dye 2a has the maximum absorption at 388 nm; and in the fluorescence spectrum, dye 2a has the highest fluorescence intensity at 457 nm, where the excitation wavelength is 380 nm, and the slit width is 3 nm/1.5 nm. In the ultraviolet-visible absorption spectrum, dye 2b has a maximum absorption wavelength of 386 nm; and in the fluorescence spectrum, dye 2b has a maximum emission wavelength of 459 nm, where the excitation wavelength is 385 nm, and the slit width is 3 nm/1.5 nm. In the ultraviolet-visible absorption spectrum, dye 2c has a maximum absorption wavelength of 385 nm; and in the fluorescence spectrum, dye 2c has a maximum emission wavelength of 455 nm, where the excitation wavelength is 380 nm, and the slit width is 3 nm/1.5 nm. In the ultraviolet-visible absorption spectrum, dye 2d has the maximum absorption at 380 nm; and in the fluorescence spectrum, dye 2d has the highest fluorescence intensity at 457 nm, where the excitation wavelength is 380 nm, and the slit width is 3 nm/1.5 nm. In the ultraviolet-visible absorption spectrum, dye 2e has a maximum absorption wavelength of 385 nm; and in the fluorescence spectrum, dye 2e has a maximum emission wavelength of 458 nm, where the excitation wavelength is 385 nm, and the slit width is 3 nm/1.5 nm. In the ultraviolet-visible absorption spectrum, dye 3a has the maximum absorption at 554 nm; and in the fluorescence spectrum, dye 3a has the highest fluorescence intensity at 604 nm, where the excitation wavelength is 550 nm, and the slit width is 1.5 nm/3 nm. In the ultraviolet-visible absorption spectrum, dye 3b has a maximum absorption wavelength of 552 nm; and in the fluorescence spectrum, dye 3b has a maximum emission wavelength of 597 nm, where the excitation wavelength is 550 nm, and the slit width is 1.5 nm/3 nm. In the ultraviolet-visible absorption spectrum, dye 3c has a maximum absorption wavelength of 552 nm; and in the fluorescence spectrum, dye 3c has a maximum emission wavelength of 621 nm, where the excitation wavelength is 550 nm, and the slit width is 1.5 nm/3 nm. In the ultraviolet-visible absorption spectrum, dye 3d has a maximum absorption wavelength of 551 nm; and in the fluorescence spectrum, dye 3d has a maximum emission wavelength of 607 nm, where the excitation wavelength is 545 nm, and the slit width is 1.5 nm/3 nm. In the ultraviolet-visible absorption spectrum, dye 3e has a maximum absorption wavelength of 553 nm; and in the fluorescence spectrum, dye 3e has a maximum emission wavelength of 585 nm, where the excitation wavelength is 550 nm, and the slit width is 1.5 nm/3 nm. The above UV absorption and fluorescence emission test methods are conventional methods.

[4] = test system: mitochondria in HeLa cells; test: Colocalization imaging with green mitochondrial marker Mito Tracker Green FM, laser confocal microscope; type: cell-based; settings: 2 μM; for mitochondria labeling ability: red channel; for colocalization coefficient: versus Mito Tracker Green FM (100 nm)
Protocol: Dye 3a was formulated into a mother liquor in DMSO (dimethyl sulfoxide), and then added to a conventional cell culture medium to give a concentration of dye 3a in the cell culture medium of 2 μM. HeLa cells were co-cultured for 10 min in an incubator at saturated humidity, 37° C., and 5% CO2 (the experiment was same below). The green mitochondrial marker Mito Tracker® Green FM (100 nm) was added, and the cells were co-incubated for another 10 min, washed three times with a PBS buffer, and imaged under a laser confocal microscope. In the red channel, light of 561 nm was used for excitation, and a fluorescence signal in the range of 570-750 nm was collected. In the green channel, light of 488 nm was used for excitation, and a fluorescence signal in the range of 500-550 nm was collected.
The experiment method with dye 3b (2 μM), dye 3c (2 μM), dye 3d (2 μM), and dye 3e (2 μM) was the same with that with dye 3a, except that dye 3a was replaced.

residual absorptivity [2] | maximum absorption wavelength [3] | maximum emission wavelength (highest fluorescence intensity) [3] | Structure (SMILES) | mitochondria labeling ability [1] | colocalization coefficient [1] | mitochondria labeling ability [4] | colocalization coefficient [4]
92% | 386 nm | 459 nm | CCN(CC)c1ccc2c(C)c(-c3ccc(C(=O)NC)cc3)c(=O)oc2c1 [dye 2b] | have mitochondria labeling ability | 0.94 |  | 
93% | 554 nm | 604 nm | CCN(CC)c1ccc2nc3c4ccc(-c5ccc(C(N)=O)cc5)cc4c(=O)cc-3oc2c1 [dye 3a] |  |  | has mitochondria labeling ability | 0.94
92% | 552 nm | 597 nm | CCN(CC)c1ccc2nc3c4ccc(-c5ccc(C(=O)NC)cc5)cc4c(=O)cc-3oc2c1 [dye 3b] |  |  | has mitochondria labeling ability | 0.88
97% | 385 nm | 458 nm | CCN(CC)c1ccc2c(C)c(-c3ccc4c(c3)CCC(=O)N4)c(=O)oc2c1 [dye 2e] | have mitochondria labeling ability | 0.91 |  | 
94% | 552 nm | 621 nm | CCN(CC)c1ccc2nc3c4ccc(-c5ccc(C(=O)N(C)C)cc5)cc4c(=O)cc-3oc2c1 [dye 3c] |  |  | has mitochondria labeling ability | 0.94
95% | 385 nm | 455 nm | CCN(CC)c1ccc2c(C)c(-c3ccc(C(=O)N(C)C)cc3)c(=O)oc2c1 [dye 2c] | have mitochondria labeling ability | 0.88 |  | 
91% | 380 nm | 457 nm | CCN(CC)c1ccc2c(C)c(-c3ccc4c(c3)CC(=O)N4)c(=O)oc2c1 [dye 2d] | have mitochondria labeling ability | 0.92 |  | 
92% | 553 nm | 585 nm | CCN(CC)c1ccc2nc3c4ccc(-c5ccc6c(c5)CCC(=O)N6)cc4c(=O)cc-3oc2c1 [dye 3e] |  |  | has mitochondria labeling ability | 0.92
94% |  |  | O=c1ccc2ccccc2o1 [coumarin, reference compound] |  |  |  | 
93% | 551 nm | 607 nm | CCN(CC)c1ccc2nc3c4ccc(-c5ccc6c(c5)CC(=O)N6)cc4c(=O)cc-3oc2c1 [dye 3d] |  |  | has mitochondria labeling ability | 0.96
97% |  |  | CCN(CC)c1ccc2nc3c4ccccc4c(=O)cc-3oc2c1 [Nile Red, Nile red, reference compound] |  |  |  | 
93% | 388 nm | 457 nm | CCN(CC)c1ccc2c(C)c(-c3ccc(C(N)=O)cc3)c(=O)oc2c1 [dye 2a] | has mitochondria labeling ability | 0.88 |  | 
